# Laboratory results as given in patent publication US8450324B2, “Crystalline base of trans-1-((1R,3S)-6-chloro-3-phenylindan-1-yl)-3,3-dimethylpiperazine” (H. Lunbeck A/S, priority 2005, dated 2013).
# Tests used:
# [1] = system: pigs sensitized to haloperidol; assay: dystonia in pigs sensitized to haloperidol; type: in vivo
# [2] = target: dopamine (DA) D1 receptors (Homo sapiens, UniProt P21728); conditions: as described in PCT/DK04/000546; cited from earlier work
# DA D2 receptors = DA D2 receptors (Homo sapiens, UniProt P14416); conditions: as described in PCT/DK04/000546; cited from earlier work
# DA D2 receptors, sequence (P14416 whole entry): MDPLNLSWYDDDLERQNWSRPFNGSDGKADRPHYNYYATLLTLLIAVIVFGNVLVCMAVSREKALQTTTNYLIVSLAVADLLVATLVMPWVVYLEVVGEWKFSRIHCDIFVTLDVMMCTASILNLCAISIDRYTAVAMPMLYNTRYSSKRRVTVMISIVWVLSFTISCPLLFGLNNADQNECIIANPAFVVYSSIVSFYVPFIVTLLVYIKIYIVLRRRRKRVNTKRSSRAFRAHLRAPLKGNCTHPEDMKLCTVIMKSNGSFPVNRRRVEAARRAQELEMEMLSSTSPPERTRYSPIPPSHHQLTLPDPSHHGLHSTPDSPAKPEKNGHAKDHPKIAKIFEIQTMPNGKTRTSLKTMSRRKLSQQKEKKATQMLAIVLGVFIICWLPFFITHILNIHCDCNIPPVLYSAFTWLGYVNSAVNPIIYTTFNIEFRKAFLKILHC
# alfa1 adrenoceptors = conditions: as described in PCT/DK04/000546; cited from earlier work
# dopamine D1 receptors = dopamine D1 receptors (Homo sapiens, UniProt P21728); conditions: as described in PCT/DK04/000546; cited from earlier work
# dopamine D1 receptors, sequence (P21728 whole entry): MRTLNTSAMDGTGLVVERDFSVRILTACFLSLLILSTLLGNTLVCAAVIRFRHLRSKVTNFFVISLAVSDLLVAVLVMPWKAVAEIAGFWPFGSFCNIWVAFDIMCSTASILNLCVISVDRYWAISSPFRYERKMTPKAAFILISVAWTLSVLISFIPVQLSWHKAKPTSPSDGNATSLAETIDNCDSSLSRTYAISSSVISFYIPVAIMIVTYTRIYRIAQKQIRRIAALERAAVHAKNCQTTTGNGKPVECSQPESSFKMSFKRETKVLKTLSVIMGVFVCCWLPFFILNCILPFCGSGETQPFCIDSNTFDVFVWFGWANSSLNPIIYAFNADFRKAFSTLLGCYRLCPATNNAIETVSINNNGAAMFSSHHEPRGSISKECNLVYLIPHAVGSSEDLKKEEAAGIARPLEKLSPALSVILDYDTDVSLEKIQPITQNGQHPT
# dopamine D2 receptors = dopamine D2 receptors (Homo sapiens, UniProt P14416); conditions: as described in PCT/DK04/000546; cited from earlier work
# dopamine D2 receptors, sequence (P14416 whole entry): as the sequence (P14416 whole entry) above
# [3] = target: serotonin 5-HT2a receptors (Homo sapiens, UniProt P28223); conditions: as described in PCT/DK04/000546; cited from earlier work
# serotonin 5-HT2a receptors, sequence (P28223 whole entry): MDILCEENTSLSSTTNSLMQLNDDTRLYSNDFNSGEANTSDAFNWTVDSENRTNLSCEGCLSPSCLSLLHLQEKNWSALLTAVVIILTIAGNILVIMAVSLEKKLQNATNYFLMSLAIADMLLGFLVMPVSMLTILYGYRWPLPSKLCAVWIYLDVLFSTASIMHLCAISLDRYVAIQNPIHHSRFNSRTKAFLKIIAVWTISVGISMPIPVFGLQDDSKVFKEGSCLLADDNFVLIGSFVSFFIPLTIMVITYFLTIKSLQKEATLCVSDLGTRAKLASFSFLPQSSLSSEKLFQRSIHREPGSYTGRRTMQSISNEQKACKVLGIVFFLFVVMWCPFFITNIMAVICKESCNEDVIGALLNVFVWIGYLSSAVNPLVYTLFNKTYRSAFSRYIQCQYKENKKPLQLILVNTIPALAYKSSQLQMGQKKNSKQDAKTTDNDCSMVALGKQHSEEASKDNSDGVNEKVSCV
# CYP2D6 = CYP2D6 (Homo sapiens, UniProt P10635); conditions: as described in PCT/DK04/000546; cited from earlier work
# CYP2D6, sequence (P10635 whole entry): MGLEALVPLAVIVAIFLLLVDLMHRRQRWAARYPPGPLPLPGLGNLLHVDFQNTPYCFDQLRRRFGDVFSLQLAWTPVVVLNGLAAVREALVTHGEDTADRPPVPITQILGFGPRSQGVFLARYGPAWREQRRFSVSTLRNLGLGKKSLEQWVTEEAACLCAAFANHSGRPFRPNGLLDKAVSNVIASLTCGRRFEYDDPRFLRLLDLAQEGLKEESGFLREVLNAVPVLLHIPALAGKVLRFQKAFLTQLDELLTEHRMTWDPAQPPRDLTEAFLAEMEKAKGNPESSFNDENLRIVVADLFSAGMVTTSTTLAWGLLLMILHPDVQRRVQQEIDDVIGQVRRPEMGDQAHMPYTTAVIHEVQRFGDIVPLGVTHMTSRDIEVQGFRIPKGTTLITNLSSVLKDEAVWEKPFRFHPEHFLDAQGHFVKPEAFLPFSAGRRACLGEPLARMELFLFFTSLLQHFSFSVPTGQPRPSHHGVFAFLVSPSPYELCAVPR
# QT interval = conditions: rabbit model; as described in PCT/DK04/000546; cited from earlier work
# dopamine (DA) D1 receptors, sequence (P21728 whole entry): as the sequence (P21728 whole entry) above
smiles,measurement,setting,value
"CC1(C)CN([C@@H]2C[C@@H](c3ccccc3)c3ccc(Cl)cc32)CCN1 [Compound I, trans-1-((1R,3S)-6-chloro-3-phenylindan-1-yl)-3,3-dimethylpiperazine]",induction of dystonia (EPS liability),[1],did not induce dystonia
same,affinity for dopamine (DA) D1 receptors,[2],high affinity
same,affinity for DA D2 receptors,DA D2 receptors,high affinity
same,affinity for alfa1 adrenoceptors,alfa1 adrenoceptors,high affinity
same,functional activity at dopamine D1 receptors,dopamine D1 receptors,antagonist
same,functional activity at dopamine D2 receptors,dopamine D2 receptors,antagonist
same,functional activity at serotonin 5-HT2a receptors,[3],antagonist
same,inhibition of CYP2D6,CYP2D6,relatively weak inhibitor
same,effect on the QT interval,QT interval,relatively low effect
